Test results: US20100168146A1, “Composition Comprising (R)-Spiro[L-Azabicyclo[2.2.2]Octane-3,2'(3'H)-Furo[2,3-B]Pyridine (AZD0328) and its Use in the Treatment of Alzheimer's Disease, ADHD or Cognitive Dysfunction” (priority 2008, published 2010)

Assays:
rats = assay: Nicotine drug discrimination; details: rat, sc, training drug
Protocol: AZD0328 was tested for its potential to produce nicotine-like stimulus effects after subcutaneous administration in a drug-discrimination procedure (Table 3).

[1] = Pharmacological activity of metabolite; details: major metabolite
Protocol: Pyridinyl methylation of AZD0328 was a unique polar metabolite (M2) observed in dog hepatocytes. Other minor hydroxylation/oxidation and glucuronide conjugation products were detected in monkey, dog, rat, and guinea pig hepatocyte incubations and mini-pig hepatic microsome incubations. […] Analysis of plasma and urine samples from either orally or iv dosed rats confirmed N-oxide product of AZD0328 was a main product in the excretion and circulation. The percentage of AZD0328 N-oxide in the plasma from male rats was much higher than from females.

| Structure (SMILES) | Response rates (rats) | Pharmacological activity [1] |
| --- | --- | --- |
| CN1CCCC1c1cccnc1 (centres unmarked) [nicotine, reference compound] | not significantly affected | – |
| [O-][N+]12CCC(CC1)C1(Cc3cccnc3O1)C2 (centres unmarked) [quinuclidinyl-N-oxide of AZD0328] | – | pharmacological inactive |
